In patent publication US7432276B2, “ABCA1 elevating compounds” (CV Therapeutics, Inc., priority 2005, dated 2008):

What follows are molecules tested on ABCA1 mRNA (assay: ABCA1 mRNA induction in THP-1 cells, QuantiGene branched DNA assay). Conditions: 10 μM test compound, 18-20 hours.
Assay type: cell-based
Description: Modulation of expression of ABCA1 mRNA levels by the compounds of the invention was determined in the following assays.
Induction of ABC1 in THP-1 cells, was measured using QuantiGene® branched DNA assay as per manufacturer's instructions. Cultures of THP-1 were grown to subconfluence in DMEM/10% FBS before replacement with DMEM/BSA and 10 and 3 μM concentrations of the test compounds in DMSO for 18-20 hours. After treatment of cells with compounds, the cells were lysed with lysis buffer at 37° C. for 20 minutes. The cell lysate and ABCA1 specific probe (Genospectra, Inc., Fremont, Calif.) mix were added to the 96 well capture plate and hybridized at 53° C. for 16-18 hours. The signal was amplified using the amplifier and label probes provided with the QuantiGene® assay followed by addition of a luminescent alkaline phosphatase substrate, dioxitane. Luminescence was quantified in Victor V plate reader.
Step 1 • Cells are lysed to release mRNA in the presence of target probes. Target mRNA from lysed cells was then captured by hybridization and transferred to the Capture Plate.
Step 2 • Signal amplification was performed by hybridization of the bDNA Amplifier and Label Probe.
Step 3 • Addition of chemiluminescence substrate yielded a QuantiGene® signal proportional to the amount of mRNA present in the sample.
Table 1 presents the relative fold increase in ABCA1 expression over DMSO for various compounds of the invention when tested at a concentration of […].

Question: With `COc1cccc2c1OCC1C2Nc2ccc(N3CCS(=O)(=O)CC3)cc2C1(C)C` (centres unmarked) [Number 21, 4-(4-methoxy-7,7-dimethyl-7,12,12a,6a-tetrahydrochromano[4,3-b]quinolin-9-yl)-1,4-thiazaperhydroine-1,1-dione] as the molecule, how does the “ABCA1 Induction Fold Increase over DMSO Vehicle” value (shortened to “ABCA1 Induction Fold Increase”) read?
Answer: Its value is 5.6 FOLD INCREASE.

Question: Which “ABCA1 Induction Fold Increase” value does the source give for `COc1cccc2c1OC[C@@H]1[C@H]2Nc2ccc(F)cc2C1(C)C` [Number 48, (6aS,12aR)-9-fluoro-4-methoxy-7,7-dimethyl-7,12,12a,6a-tetrahydrochromano[4,3-b]quinoline] here?
Answer: Its value is 3.7 FOLD INCREASE.

Question: Which “ABCA1 Induction Fold Increase” value does the source give for `COc1cccc2c1OC[C@@H]1[C@H]2Nc2ccc(CCC(=O)O)cc2C1(C)C` [Number 27, 3-((6aS,12aR)-4-methoxy-7,7-dimethyl-7,12,12a,6a-tetrahydrochromano[4,3-b]quinolin-9-yl)propanoic acid] here?
Answer: The value was 3.3 FOLD INCREASE.

Question: How did the “ABCA1 Induction Fold Increase” value turn out when `COc1cccc2c1[C@H]1Nc3ccc(-c4nnn[nH]4)cc3C(C)(C)[C@H]1CO2` [Number 71, (12aS,6aR)-1-methoxy-7,7-dimethyl-9-(1,2,3,4-tetraazol-5-yl)-7,12,12a,6a-tetrahydrochromano[4,3-b]quinoline] was run?
Answer: The value was 9.5 FOLD INCREASE.

Question: With `CC1(C)c2cc(C(O)(C(F)(F)F)C(F)(F)F)ccc2N[C@H]2c3ccccc3OC[C@H]21` [Number 70, 2-((6aS,12aR)-7,7-dimethyl(7,12,12a,6a-tetrahydrochromano[4,3-b]quinolin-9-yl))-1,1,1,3,3,3-hexafluoropropan-2-ol] as the molecule, how does the “ABCA1 Induction Fold Increase” value read?
Answer: The value was 4.0 FOLD INCREASE.

Question: How did the “ABCA1 Induction Fold Increase” value turn out when `CC1(C)c2cc(C(O)(C(F)(F)F)C(F)(F)F)ccc2NC2c3cc(C(=O)O)ccc3OCC21` (centres unmarked) [Number 16, 7,7-dimethyl-9-[2,2,2-trifluoro-1-hydroxy-1-(trifluoromethyl)ethyl]-7,12,12a,6a-tetrahydrochromano[4,3-b]quinoline-2-carboxylic acid] was run?
Answer: Its value is 2.4 FOLD INCREASE.

Question: How did the “ABCA1 Induction Fold Increase” value turn out when `Cc1cc(Cl)cc2c1OCC1C2Nc2ccc(C(O)(C(F)(F)F)C(F)(F)F)cc2C1(C)C` (centres unmarked) [Number 69, 2-(2-chloro-4,7,7-trimethyl(7,12,12a,6a-tetrahydrochromano[4,3-b]quinolin-9-yl))-1,1,1,3,3,3-hexafluoropropan-2-ol] was run?
Answer: The value was 2.6 FOLD INCREASE.

Question: For `COC(=O)c1cccc(-c2ccc3c(c2)C(C)(C)[C@H]2COc4cccc(OC)c4[C@H]2N3)c1` [Number 113, methyl 3-((12aS,6aR)-1-methoxy-7,7-dimethyl-7,12,12a,6a-tetrahydrochromano[4,3-b]quinolin-9-yl)benzoate], which “ABCA1 Induction Fold Increase” value is on record?
Answer: Its value is 1.5 FOLD INCREASE.

Question: Which “ABCA1 Induction Fold Increase” value does the source give for `COc1cccc2c1OC[C@@H]1[C@H]2Nc2ccccc2C1(C)C` [Number 37, (6aS,12aR)-4-methoxy-7,7-dimethyl-7,12,12a,6a-tetrahydrochromano[4,3-b]quinoline] here?
Answer: Its value is 8.3 FOLD INCREASE.

Question: How did the “ABCA1 Induction Fold Increase” value turn out when `Cc1cccc2c1OCC1C2Nc2ccccc2C1(C)C` (centres unmarked) [Number 31, 4,7,7-trimethyl-7,12,12a,6a-tetrahydrochromano[4,3-b]quinoline] was run?
Answer: Its value is 5.5 FOLD INCREASE.

Question: Which “ABCA1 Induction Fold Increase” value does the source give for `COC(=O)c1cc2c(cc1OC)NC1c3cc(Br)ccc3OCC1C2(C)C` (centres unmarked) [Number 6, methyl 2-bromo-10-methoxy-7,7-dimethyl-7,12,12a,6a-tetrahydrochromano[4,3-b]quinoline-9-carboxylate] here?
Answer: Its value is 1.6 FOLD INCREASE.

Question: With `C#Cc1ccc2c(c1)C(C)(C)[C@H]1COc3cccc(OC)c3[C@H]1N2` [Number 95, (12aS,6aR)-9-ethynyl-1-methoxy-7,7-dimethyl-7,12,12a,6a-tetrahydrochromano[4,3-b]quinoline] as the molecule, how does the “ABCA1 Induction Fold Increase” value read?
Answer: The value was 4.3 FOLD INCREASE.

Question: With `CC1(C)c2cc(C(O)(C(F)(F)F)C(F)(F)F)ccc2N[C@@H]2c3cc(OC(F)(F)F)ccc3OC[C@H]21` [Number 9, 2-[(12aS,6aS)-7,7-dimethyl-2-(trifluoromethoxy)(7,12,12a,6a-tetrahydrochromano[4,3-b]quinolin-9-yl)]-1,1,1,3,3,3-hexafluoropropan-2-ol] as the molecule, how does the “ABCA1 Induction Fold Increase” value read?
Answer: The value was 2.4 FOLD INCREASE.

Question: Which “ABCA1 Induction Fold Increase” value does the source give for `COc1cccc2c1OCC1C2Nc2ccc(Cc3nnn[nH]3)cc2C1(C)C` (centres unmarked) [Number 76, 4-methoxy-7,7-dimethyl-9-(1,2,3,4-tetraazol-5-ylmethyl)-7,12,12a,6a-tetrahydrochromano[4,3-b]quinoline] here?
Answer: The value was 6.0 FOLD INCREASE.

Question: How did the “ABCA1 Induction Fold Increase” value turn out when `CC1(C)c2cc(C(O)(C(F)(F)F)C(F)(F)F)ccc2NC2c3cccc(F)c3OCC21` (centres unmarked) [Number 51, 1,1,1,3,3,3-hexafluoro-2-(4-fluoro-7,7-dimethyl(7,12,12a,6a-tetrahydrochromano[4,3-b]quinolin-9-yl))propan-2-ol] was run?
Answer: The value was 7.8 FOLD INCREASE.

Question: `COc1cccc2c1[C@H]1Nc3ccc(-c4ccc(C#N)cc4)cc3C(C)(C)[C@@H]1CO2` [Number 92, 4-((12aS,6aS)-1-methoxy-7,7-dimethyl-7,12,12a,6a-tetrahydrochromano[4,3-b]quinolin-9-yl)benzenecarbonitrile] was tested. Which “ABCA1 Induction Fold Increase” value did it give?
Answer: Its value is 8.7 FOLD INCREASE.

Question: `CC(C)=CCOC(=O)c1ccc2c(c1)OCC1C2Nc2ccc(C(O)(C(F)(F)F)C(F)(F)F)cc2C1(C)C` (centres unmarked) [Number 12, 3-methylbut-2-enyl 7,7-dimethyl-9-[2,2,2-trifluoro-1-hydroxy-1-(trifluoromethyl)ethyl]-7,12,12a,6a-tetrahydrochromano[4,3-b]quinoline-3-carboxylate] was tested. Which “ABCA1 Induction Fold Increase” value did it give?
Answer: Its value is 4.6 FOLD INCREASE.

Question: With `COc1ccc(Br)c2c1OCC1C2Nc2ccc(OC(C)C)cc2C1(C)C` (centres unmarked) [Number 83, 1-bromo-4-methoxy-7,7-dimethyl-9-(methylethoxy)-7,12,12a,6a-tetrahydrochromano[4,3-b]quinoline] as the molecule, how does the “ABCA1 Induction Fold Increase” value read?
Answer: Its value is 2.7 FOLD INCREASE.

Question: Which “ABCA1 Induction Fold Increase” value does the source give for `COc1cccc2c1[C@H]1Nc3ccc(-c4ccc(/C=C/C(=O)O)cc4)cc3C(C)(C)[C@H]1CO2` [Number 115, (2E)-3-[4-((12aS,6aR)-1-methoxy-7,7-dimethyl(7,12,12a,6a-tetrahydrochromano[4,3-b]quinolin-9-yl))phenyl]prop-2-enoic acid] here?
Answer: The value was 2.2 FOLD INCREASE.

Question: For `Cc1cccc2c1OCC1C2Nc2ccc(C(N)=O)cc2C1(C)C` (centres unmarked) [Number 29, 4,7,7-trimethyl-7,12,12a,6a-tetrahydrochromano[4,3-b]quinoline-9-carboxamide], which “ABCA1 Induction Fold Increase” value is on record?
Answer: The value was 5.8 FOLD INCREASE.

Same assay, conditions: Homo sapiens, 10 μM test compound, 18-20 hours, read-out: ABCA1 Induction Fold Increase over DMSO Vehicle

Question: How did the fold induction at 10 µM turn out when `COc1cccc2c1[C@H]1Nc3ccc(C(=O)NCCO)cc3C(C)(C)[C@H]1CO2` [Number 117, (6aR,12aS)-6a,7,12,12a-tetrahydro-N-(2-hydroxyethyl)-1-methoxy-7,7-dimethyl-6H-chromeno[4,3-b]quinoline-9-carboxamide] was run?
Answer: Its fold induction at 10 µM is 8.6.

Question: How did the fold induction at 10 µM turn out when `COc1cccc2c1[C@H]1Nc3ccc(-n4cc(C(=O)N(C)C)cn4)cc3C(C)(C)[C@H]1CO2` [Number 137, 1-((6aR,12aS)-6a,7,12,12a-tetrahydro-1-methoxy-7,7-dimethyl-6H-chromeno[4,3-b]quinolin-9-yl)-N,N-dimethyl-1H-pyrazole-4-carboxamide] was run?
Answer: Its fold induction at 10 µM is 7.

Question: `COc1cc(Br)cc2c1OC[C@H]1[C@@H]2Nc2ccc(-c3nnn[nH]3)cc2C1(C)C` [Number 164, (6aR,12aS)-2-bromo-6a,7,12,12a-tetrahydro-4-methoxy-7,7-dimethyl-9-(1H-tetrazol-5-yl)-6H-chromeno[4,3-b]quinoline] was tested. Which fold induction at 10 µM did it give?
Answer: The fold induction at 10 µM was 5.6.

Question: For `CCOP(=O)(Cc1ccc2c(c1)C(C)(C)[C@@H]1COc3c(OC)cc(Br)cc3[C@H]1N2)OCC` [Number 179, diethyl((6aS,12aS)-2-bromo-6a,7,12,12a-tetrahydro-4-methoxy-7,7-dimethyl-6H-chromeno[4,3-b]quinolin-9-yl)methylphosphonate], which fold induction at 10 µM is on record?
Answer: Its fold induction at 10 µM is 5.2.

Question: How did the fold induction at 10 µM turn out when `COC(=O)c1ccc2c(c1)C(C)(C)[C@H]1COc3c(OC)cc(-c4cn[nH]c4)cc3[C@H]1N2` [Number 161, (6aR,12aS)-methyl 6a,7,12,12a-tetrahydro-4-methoxy-7,7-dimethyl-2-(1H-pyrazol-4-yl)-6H-chromeno[4,3-b]quinoline-9-carboxylate] was run?
Answer: The fold induction at 10 µM was 8.1.

Question: With `CCOC(=O)CN1c2ccccc2C(C)(C)[C@H]2COc3cccc(OC)c3[C@H]21` [Number 157, ethyl 2-((6aR,12aS)-6a,7-dihydro-1-methoxy-7,7-dimethyl-6H-chromeno[4,3-b]quinolin-12(12aH)-yl)acetate] as the molecule, how does the fold induction at 10 µM read?
Answer: The fold induction at 10 µM was 3.3.

Question: For `CCCCN1c2ccccc2C(C)(C)[C@H]2COc3cccc(OC)c3[C@H]21` [Number 174, (6aR,12aS)-12-butyl-6a,7,12,12a-tetrahydro-1-methoxy-7,7-dimethyl-6H-chromeno[4,3-b]quinoline], which fold induction at 10 µM is on record?
Answer: Its fold induction at 10 µM is 1.9.

Question: With `COC(=O)c1ccc2c(c1)C(C)(C)[C@H]1COc3c(OC)cc(-c4c(C)noc4C)cc3[C@H]1N2` (racemic) [Number 162, (6aR,12aS)-methyl 6a,7,12,12a-tetrahydro-4-methoxy-7,7-dimethyl-2-(3,5-dimethylisoxazol-4-yl)-6H-chromeno[4,3-b]quinoline-9-carboxylate] as the molecule, how does the fold induction at 10 µM read?
Answer: Its fold induction at 10 µM is 7.7.

Question: With `COc1cc(-c2cn[nH]c2)cc2c1OC[C@@H]1[C@@H]2Nc2ccc(-c3cnco3)cc2C1(C)C` [Number 160, (6aS,12aS)-6a,7,12,12a-tetrahydro-4-methoxy-7,7-dimethyl-9-(oxazol-5-yl)-2-(1H-pyrazol-4-yl)-6H-chromeno[4,3-b]quinoline] as the molecule, how does the fold induction at 10 µM read?
Answer: The fold induction at 10 µM was 4.7.
